Results published in patent US4640910A (Abbott Laboratories, priority 1985, dated 1987).
Values after ≈ are worked out from the molar mass of the structure shown. Like-named read-outs stand apart in the source and are kept apart here.

Tests used:
Staph. aureus ATCC 6538P = assay: Antimicrobial spectrum, agar dilution MIC; type: cell-based; conditions: Staphylococcus aureus, ATCC6538P, BHI agar, 35°-37° C., 20-24 hours
Staph. aureus CMX 686B = assay: Antimicrobial spectrum, agar dilution MIC; type: cell-based; conditions: Staphylococcus aureus, CMX686B, BHI agar, 35°-37° C., 20-24 hours
Staph. aureus A 5177 = assay: Antimicrobial spectrum, agar dilution MIC; type: cell-based; conditions: Staphylococcus aureus, A5177
Staph. epidermidis 3519 = assay: Antimicrobial spectrum, agar dilution MIC; type: cell-based; conditions: Staphylococcus epidermidis, BHI agar, 35°-37° C., 20-24 hours
[1] = test system: Staph. epidermidis 3519 RARI; assay: Antimicrobial spectrum, agar dilution MIC; type: cell-based; conditions: Staphylococcus epidermidis
Micrococcus luteus 9341 = assay: Antimicrobial spectrum, agar dilution MIC; type: cell-based; conditions: Micrococcus luteus 9341; BHI agar, 35°-37° C., 20-24 hours; read-out: MIC
Micrococcus luteus 4698 = assay: Antimicrobial spectrum, agar dilution MIC; type: cell-based; conditions: BHI agar, 35°-37° C., 20-24 hours
[2] = test system: Lactobacillus casei ATCC 7469; assay: Antimicrobial spectrum, agar dilution MIC; type: cell-based; conditions: Lacticaseibacillus casei, ATCC7469; Lactobacillus casei ATCC 7469; BHI agar, 35°-37° C., 20-24 hours; read-out: MIC
Strep. faecium ATCC 8043 = assay: Antimicrobial spectrum, agar dilution MIC; type: cell-based; conditions: Enterococcus faecium, ATCC8043, BHI agar, 35°-37° C., 20-24 hours
Strep. bovis A5169 = assay: Antimicrobial spectrum, agar dilution MIC; type: cell-based; conditions: Streptococcus equinus, BHI agar, 35°-37° C., 20-24 hours
[3] = test system: Strep. agalactiae CMX 508; assay: Antimicrobial spectrum, agar dilution MIC; type: cell-based; conditions: Streptococcus agalactiae, CMX508, BHI agar, 35°-37° C., 20-24 hours
Strep. pyogenes EES61 = assay: Antimicrobial spectrum, agar dilution MIC; type: cell-based; conditions: Streptococcus pyogenes, BHI agar, 35°-37° C., 20-24 hours
Strep. pyogenes 930 = assay: Antimicrobial spectrum, agar dilution MIC; type: cell-based; conditions: Streptococcus pyogenes, BHI agar, 35°-37° C., 20-24 hours
E. coli JUHL = assay: Antimicrobial spectrum, agar dilution MIC; type: cell-based; conditions: Escherichia coli, BHI agar, 35°-37° C., 20-24 hours
E. coli SS = assay: Antimicrobial spectrum, agar dilution MIC; type: cell-based; conditions: Escherichia coli, BHI agar, 35°-37° C., 20-24 hours
E. coli DC-2 = assay: Antimicrobial spectrum, agar dilution MIC; type: cell-based; conditions: Escherichia coli, DC2, BHI agar, 35°-37° C., 20-24 hours
E. coli H560 = assay: Antimicrobial spectrum, agar dilution MIC; type: cell-based; conditions: Escherichia coli, BHI agar, 35°-37° C., 20-24 hours
[4] = test system: Enterobact. aerogenes ATCC 13048; assay: Antimicrobial spectrum, agar dilution MIC; type: cell-based
[5] = test system: Klebsiella pneumoniae 8045; assay: Antimicrobial spectrum, agar dilution MIC; type: cell-based; conditions: BHI agar, 35°-37° C., 20-24 hours
[6] = test system: Providencia stuartii CMX 640; assay: Antimicrobial spectrum, agar dilution MIC; type: cell-based; conditions: Providencia stuartii, CMX640
Ps. aeruginosa BMH10 = assay: Antimicrobial spectrum, agar dilution MIC; type: cell-based; conditions: Pseudomonas aeruginosa, BMH10
Ps. aeruginosa A5007 = assay: Antimicrobial spectrum, agar dilution MIC; type: cell-based; conditions: Pseudomonas aeruginosa, BHI agar, 35°-37° C., 20-24 hours
Ps. aeruginosa K799/WT = assay: Antimicrobial spectrum, agar dilution MIC; type: cell-based; conditions: Pseudomonas aeruginosa, BHI agar, 35°-37° C., 20-24 hours
Ps. aeruginosa K799/61 = assay: Antimicrobial spectrum, agar dilution MIC; type: cell-based; conditions: Pseudomonas aeruginosa, BHI agar, 35°-37° C., 20-24 hours
Ps. cepacia 2961 = assay: Antimicrobial spectrum, agar dilution MIC; type: cell-based; conditions: Burkholderia cepacia, 2961
[7] = test system: Acinetobacter sp. CMX 669; assay: Antimicrobial spectrum, agar dilution MIC; type: cell-based; conditions: SP.CMX669, BHI agar, 35°-37° C., 20-24 hours
[8] = Stability and release of drug from prodrug in aqueous buffers pH 2 to 12 (dissolution apparatus, HPLC); type: physicochemical; conditions: for conversion to active drug: 37° C.
Protocol: (§1) Samples of 2'-trimethylsilylerythromycin A and 2'-trimethylsilyl-6-O-methylerythromycin A were dissolved in 10-50 ml dimethyl sulfoxide or acetonitrile to give a solution containing 15-75 mg/ml. An aliquot containing 75 mg of prodrug was added to aqueous buffers ranging in pH from 2 to 12 to give a final volume equal to 500 ml. The buffered mixtures were stirred at 37° C. for at least 90 minutes. A standard dissolution test apparatus (Vanderkamp 600, Van-Kel Industries, Inc., 36 Meridian Road, Edisoin, N.J. 08820) was used to provide temperature and stirring rate control.
(§2) Aliquots were taken at 15, 30, 45, 60, 90, 120, 180, 240 and 360 minutes for analysis. Each sample was mixed with an internal standard, adjusted rapidly to pH 9 with 1M tricine buffer and extracted immediately with ethyl acetate. The organic extracts were evaporated and redissolved in a solution of 3% tetrahydrofuran in heptane. Samples of these solutions were injected using an autosampler (WISP 71)B, Waters Chromatography, Division of Millipore, 34 Maple Street, Milford, Mass. 01757). The prodrugs and drugs were separated by high performance liquid chromatography, detected at 225 nm using a spectrophotometer (Spectroflow 773 Absorbence Detector, Kratos Analytical Instruments), and were quantified with a digital integrator.

[9] = Solubility of prodrug in aqueous buffers; type: physicochemical
Protocol: as §1, §2

Strep. pyogenes = assay: Extended mouse protection study; conditions: oral
Staph. aureus = assay: Extended mouse protection study; conditions: oral
Strep. pneumoniae = assay: Extended mouse protection study; conditions: oral
[10] = carboxymethylcellulose with milk (reduces gastric acid secretion)
[11] = phosphate buffer solution with milk (reduces gastric acid secretion)

## CC[C@H]1OC(=O)[C@H](C)[C@@H](O[C@H]2C[C@@](C)(OC)[C@@H](O)[C@H](C)O2)[C@H](C)[C@@H](O[C@@H]2O[C@H](C)C[C@H](N(C)C)[C@H]2O[Si](C)(C)C)[C@](C)(OC)C[C@@H](C)C(=O)[C@H](C)[C@@H](O)[C@]1(C)O [Example 3, 2'-O-trimethylsilyl-6-O-methyl-Erythromycin A]
Staph. aureus ATCC 6538P
  MIC: 0.78 µg/mL (≈ 0.951 µM)
Staph. aureus CMX 686B
  MIC: 0.78 µg/mL (≈ 0.951 µM)
Staph. aureus A 5177
  MIC: 3.1 µg/mL (≈ 3.78 µM)
Staph. epidermidis 3519
  MIC: 0.78 µg/mL (≈ 0.951 µM)
[1]
  MIC: 0.39 µg/mL (≈ 0.476 µM)
Micrococcus luteus 9341
  MIC: 0.1 µg/mL (≈ 0.122 µM)
Micrococcus luteus 4698
  MIC: 0.39 µg/mL (≈ 0.476 µM)
[2]
  MIC: 0.1 µg/mL (≈ 0.122 µM)
Strep. faecium ATCC 8043
  MIC: 0.2 µg/mL (≈ 0.244 µM)
Strep. bovis A5169
  MIC: 0.1 µg/mL (≈ 0.122 µM)
[3]
  MIC: 0.1 µg/mL (≈ 0.122 µM)
Strep. pyogenes EES61
  MIC: 0.05 µg/mL (≈ 0.061 µM)
Strep. pyogenes 930
  MIC: 100 µg/mL (≈ 122 µM)
E. coli JUHL
  MIC: 100 µg/mL (≈ 122 µM)
E. coli SS
  MIC: 0.39 µg/mL (≈ 0.476 µM)
E. coli DC-2
  MIC: 100 µg/mL (≈ 122 µM)
E. coli H560
  MIC: 100 µg/mL (≈ 122 µM)
[4]
  MIC: 100 µg/mL (≈ 122 µM)
[5]
  MIC: 100 µg/mL (≈ 122 µM)
[6]
  MIC: 100 µg/mL (≈ 122 µM)
Ps. aeruginosa BMH10
  MIC: 100 µg/mL (≈ 122 µM)
Ps. aeruginosa A5007
  MIC: 100 µg/mL (≈ 122 µM)
Ps. aeruginosa K799/WT
  MIC: 100 µg/mL (≈ 122 µM)
Ps. aeruginosa K799/61
  MIC: 25 µg/mL (≈ 30.5 µM)
Ps. cepacia 2961
  MIC: 100 µg/mL (≈ 122 µM)
[7]
  MIC: 50 µg/mL (≈ 61 µM)
[8]; acid pH
  conversion to active drug: converted to the active drug 6-O-methylerythromycin A
[8]; pH 3 and 4, 37° C.
  release rates: both dissolution-rate limited release and also release from the initially dissolved material
[8]; pH 5, 6 and 7, 37° C.
  release rates: dissolution-rate limited release
[8]; pH 7, owing to solubility properties
  decomposition: severely restrict its decomposition
[8]; pH 8 or above
  conversion to active drug: Very little or no conversion
[9]; aqueous buffer, pH 2, completely soluble, read-out: solubility
  solubility: ≥ 150 µg/mL
[9]; neutral or alkaline pH
  solubility: little or no solubility
Strep. pyogenes; [10]
  ED50: 7.8 mg/kg/day
Strep. pyogenes; phosphate buffer solution
  ED50: 12.7 mg/kg/day
Strep. pyogenes; [11]
  ED50: 14.1 mg/kg/day
Staph. aureus; carboxymethylcellulose
  ED50: 34.9 mg/kg/day
Staph. aureus; phosphate buffer solution
  ED50: 157.9 mg/kg/day
Strep. pneumoniae; carboxymethylcellulose
  ED50: 7.9 mg/kg/day
Strep. pneumoniae; [10]
  ED50: 7.3 mg/kg/day
Strep. pneumoniae; phosphate buffer solution
  ED50: 9.3 mg/kg/day
Strep. pneumoniae; [11]
  ED50: 10.9 mg/kg/day
